Measured values from ChEMBL document CHEMBL1201862, “PubChem BioAssay data set” (2004).
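Tested at 5 concentrations; 48 h exposure; 96-well plates; endpoints linearly interpolated, else capped at highest concentration. GI50 = concentration required for 50% inhibition of growth.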 Calls of active or inactive are those of the source. Cut-off read from the data, not from the text of the source: active = GI50 up to about 1.1 µM and inactive = higher.

Legend:
Test in all cases: NCI-60 cell line screen, 48 h
SNB-75 = system: SNB-75
UACC-257 = system: UACC-257
M14 = system: M14
HOP-92 = system: HOP-92
HL-60 = system: HL-60
A549 = system: A549
OVCAR-3 = system: OVCAR-3
LOX IMVI = system: LOX IMVI
SNB-19 = system: SNB-19
SR = system: SR
RXF 393 = system: RXF 393
OVCAR-4 = system: OVCAR-4
NCI-H522 = system: NCI-H522
786-0 = system: 786-0
SF-295 = system: SF-295
KM12 = system: KM12
NCI/ADR-RES = system: NCI/ADR-RES
Malme-3M = system: Malme-3M
SF-539 = system: SF-539

SMILES	GI50 (SNB-75)	GI50 (UACC-257)	GI50 (M14)	GI50 (HOP-92)	GI50 (HL-60)	GI50 (A549)	GI50 (OVCAR-3)	GI50 (LOX IMVI)	GI50 (SNB-19)	GI50 (SR)	GI50 (RXF 393)	GI50 (OVCAR-4)	GI50 (NCI-H522)	GI50 (786-0)	GI50 (SF-295)	GI50 (KM12)	GI50 (NCI/ADR-RES)	GI50 (Malme-3M)	GI50 (SF-539)
CC(C)Oc1cc(O)c2c(c1)OCC=C2CCC(=O)O	31 µM (inactive)	20.2 µM (inactive)	25.9 µM (inactive)	20 µM (inactive)	20.6 µM (inactive)	28.1 µM (inactive)	41 µM (inactive)	33.1 µM (inactive)	38 µM (inactive)	34 µM (inactive)	69.5 µM (inactive)	39.3 µM (inactive)	21.2 µM (inactive)	26.3 µM (inactive)	43.5 µM (inactive)	31.5 µM (inactive)	28.4 µM (inactive)	–	–
Cn1c(S)nnc1-c1csc(-c2ccc(Cl)cc2)n1	18.7 µM (inactive)	> 100 µM (inactive)	33.1 µM (inactive)	12 µM (inactive)	–	32.6 µM (inactive)	19.1 µM (inactive)	21.7 µM (inactive)	17.5 µM (inactive)	> 100 µM (inactive)	19 µM (inactive)	26.1 µM (inactive)	19.4 µM (inactive)	17 µM (inactive)	15.6 µM (inactive)	> 100 µM (inactive)	25.2 µM (inactive)	30.3 µM (inactive)	22.2 µM (inactive)
COc1cccc(NC(=O)CC(=O)Nc2cccc(OC)c2)c1	–	> 100 µM (inactive)	> 100 µM (inactive)	> 100 µM (inactive)	> 100 µM (inactive)	> 100 µM (inactive)	> 100 µM (inactive)	> 100 µM (inactive)	> 100 µM (inactive)	> 100 µM (inactive)	–	> 100 µM (inactive)	> 100 µM (inactive)	> 100 µM (inactive)	> 100 µM (inactive)	> 100 µM (inactive)	> 100 µM (inactive)	> 100 µM (inactive)	> 100 µM (inactive)
COc1ccccc1C#C/C=C\C#Cc1ccccc1C#N	28.7 µM (inactive)	5.2 µM (inactive)	6.08 µM (inactive)	31.7 µM (inactive)	4.55 µM (inactive)	6.89 µM (inactive)	4.4 µM (inactive)	–	37.8 µM (inactive)	4.08 µM (inactive)	7.98 µM (inactive)	96.8 µM (inactive)	5.14 µM (inactive)	18.5 µM (inactive)	6.58 µM (inactive)	6.37 µM (inactive)	10.4 µM (inactive)	9.98 µM (inactive)	18.6 µM (inactive)
CC1NOC(NS(=O)(=O)c2ccc(/N=N/c3c(O)c(C(=O)O)cc4ccccc34)cc2)C1C (stereo not drawn)	> 100 µM (inactive)	> 100 µM (inactive)	> 100 µM (inactive)	> 100 µM (inactive)	> 100 µM (inactive)	> 100 µM (inactive)	> 100 µM (inactive)	–	59.2 µM (inactive)	> 100 µM (inactive)	> 100 µM (inactive)	> 100 µM (inactive)	72.4 µM (inactive)	> 100 µM (inactive)	> 100 µM (inactive)	57.8 µM (inactive)	> 100 µM (inactive)	> 100 µM (inactive)	> 100 µM (inactive)
c1ccc(-c2cc(-c3cc(-c4ccccc4)no3)on2)cc1	–	> 100 µM (inactive)	> 100 µM (inactive)	24.5 µM (inactive)	> 100 µM (inactive)	53.2 µM (inactive)	39.5 µM (inactive)	40.8 µM (inactive)	49.3 µM (inactive)	11.5 µM (inactive)	67.1 µM (inactive)	19.4 µM (inactive)	> 100 µM (inactive)	72.1 µM (inactive)	53.8 µM (inactive)	> 100 µM (inactive)	29.7 µM (inactive)	> 100 µM (inactive)	15.1 µM (inactive)
CCN1C=C/C(=C\C=C\c2cc[n+](CC)c3ccccc23)c2ccccc21	2.64 µM (inactive)	3.18 µM (inactive)	5.02 µM (inactive)	12.4 µM (inactive)	0.0135 µM (active)	3.77 µM (inactive)	2.49 µM (inactive)	–	4.17 µM (inactive)	3.33 µM (inactive)	17.3 µM (inactive)	4.46 µM (inactive)	7.43 µM (inactive)	4.9 µM (inactive)	3.58 µM (inactive)	3.42 µM (inactive)	64.4 µM (inactive)	13.4 µM (inactive)	3.39 µM (inactive)
COc1ccc(C(c2ccc(OC)cc2)N2C(=O)CCC2C(=O)O)cc1 (stereo not drawn)	> 100 µM (inactive)	> 100 µM (inactive)	> 100 µM (inactive)	> 100 µM (inactive)	> 100 µM (inactive)	> 100 µM (inactive)	> 100 µM (inactive)	> 100 µM (inactive)	> 100 µM (inactive)	> 100 µM (inactive)	–	> 100 µM (inactive)	> 100 µM (inactive)	> 100 µM (inactive)	> 100 µM (inactive)	> 100 µM (inactive)	> 100 µM (inactive)	> 100 µM (inactive)	> 100 µM (inactive)
Cc1coc2c1[C@@H](O)[C@@]1(C)[C@H](CCC[C@@H]1C)C2	–	33 µM (inactive)	18.2 µM (inactive)	51.2 µM (inactive)	23.7 µM (inactive)	–	23.9 µM (inactive)	43.4 µM (inactive)	72.9 µM (inactive)	21.6 µM (inactive)	18.2 µM (inactive)	58.7 µM (inactive)	25.3 µM (inactive)	34.8 µM (inactive)	45 µM (inactive)	85.3 µM (inactive)	24.8 µM (inactive)	30 µM (inactive)	21.5 µM (inactive)
O=C(c1ccccc1)N1C(=S)N(c2ccc([N+](=O)[O-])cc2)C(=N/c2ccccc2)/C1=N\c1ccccc1	24.4 µM (inactive)	> 100 µM (inactive)	> 100 µM (inactive)	> 100 µM (inactive)	–	41.9 µM (inactive)	> 100 µM (inactive)	–	> 100 µM (inactive)	20.6 µM (inactive)	> 100 µM (inactive)	–	9.06 µM (inactive)	> 100 µM (inactive)	> 100 µM (inactive)	> 100 µM (inactive)	> 100 µM (inactive)	> 100 µM (inactive)	> 100 µM (inactive)
O=C(O)CCC(N/N=N/c1ccc(-c2nc3ccccc3[nH]2)cc1)C(=O)O (stereo not drawn)	59.2 µM (inactive)	> 100 µM (inactive)	54.1 µM (inactive)	36.1 µM (inactive)	37.2 µM (inactive)	78.7 µM (inactive)	30.3 µM (inactive)	43.1 µM (inactive)	> 100 µM (inactive)	29.7 µM (inactive)	40.9 µM (inactive)	66.5 µM (inactive)	> 100 µM (inactive)	52.1 µM (inactive)	21.6 µM (inactive)	37.4 µM (inactive)	27.8 µM (inactive)	–	> 100 µM (inactive)
C/C=C\C(CC(=O)O)CC(=O)NCCC1CN(S(=O)(=O)C(F)(F)F)c2ccccc21 (stereo not drawn)	> 100 µM (inactive)	> 100 µM (inactive)	> 100 µM (inactive)	> 100 µM (inactive)	–	> 100 µM (inactive)	> 100 µM (inactive)	> 100 µM (inactive)	> 100 µM (inactive)	> 100 µM (inactive)	> 100 µM (inactive)	> 100 µM (inactive)	> 100 µM (inactive)	> 100 µM (inactive)	> 100 µM (inactive)	> 100 µM (inactive)	> 100 µM (inactive)	> 100 µM (inactive)	–
COc1cc2c(cc1O)[C@]1(Cc3ccc4c(c3C1=O)OCO4)N(C)CC2	73.5 µM (inactive)	> 100 µM (inactive)	> 100 µM (inactive)	> 100 µM (inactive)	> 100 µM (inactive)	> 100 µM (inactive)	> 100 µM (inactive)	–	> 100 µM (inactive)	> 100 µM (inactive)	> 100 µM (inactive)	> 100 µM (inactive)	> 100 µM (inactive)	> 100 µM (inactive)	> 100 µM (inactive)	> 100 µM (inactive)	> 100 µM (inactive)	> 100 µM (inactive)	> 100 µM (inactive)
CC1(C)C(O)C[C@]23CCC[C@](C)(C[C@@H](O)C12)C3 (stereo partly drawn)	> 100 µM (inactive)	> 100 µM (inactive)	> 100 µM (inactive)	> 100 µM (inactive)	> 100 µM (inactive)	38.2 µM (inactive)	> 100 µM (inactive)	> 100 µM (inactive)	> 100 µM (inactive)	> 100 µM (inactive)	–	> 100 µM (inactive)	> 100 µM (inactive)	32.9 µM (inactive)	> 100 µM (inactive)	> 100 µM (inactive)	> 100 µM (inactive)	> 100 µM (inactive)	–
COc1cc2cc(C(=O)N3CC(CCl)c4c3cc(N)c3ccccc43)[nH]c2c(OC)c1OC (stereo not drawn)	< 0.01 µM (active)	< 0.01 µM (active)	< 0.01 µM (active)	< 0.01 µM (active)	–	< 0.01 µM (active)	< 0.01 µM (active)	< 0.01 µM (active)	< 0.01 µM (active)	< 0.01 µM (active)	< 0.01 µM (active)	< 0.01 µM (active)	< 0.01 µM (active)	< 0.01 µM (active)	< 0.01 µM (active)	< 0.01 µM (active)	< 0.01 µM (active)	< 0.01 µM (active)	< 0.01 µM (active)
